In US20230181582A1, “COMPOSITIONS AND METHODS FOR TREATING LUNG INJURIES ASSOCIATED WITH VIRAL INFECTIONS” (Qx Therapeutics Inc., priority 2020, published 2023):

Legend:
MAP3K2/MAP3K3 [1] = details: cited from earlier work; for inhibition of MAP3K2/MAP3K3-mediated phosphorylation of p47phox: substrate p47phox
mouse ALI models [2] = details: cited from earlier work
[3] = reported; cited from earlier work
[4] = reported; cited from earlier work; remark: listed apart in the source
mouse ALI models [5] = format: in vivo
neutrophils = details: cited from earlier work
[6] = test system: mouse coronavirus (MHV-1) induced acute lung injury model; assay: Pulmonary permeability (FITC-albumin in BAL) in mouse coronavirus (MHV-1) induced acute lung injury model; format: in vivo, A/J mice
patients = details: cited from earlier work
[7] = test system: mouse coronavirus (MHV-1) induced acute lung injury model; assay: Survival and body weight loss in mouse coronavirus (MHV-1) induced acute lung injury model; format: in vivo, A/J mice; details: 3 mg/kgbw once daily for 5 days since 24 hr after virus inoculation
MAP3K2/MAP3K3 [8] = assay: Inhibition of MAP3K2/MAP3K3-mediated phosphorylation of substrates (p47phox, MEK5); format: biochemical

## Cc1ccc(NC(=O)c2ccc(CN3CCN(C)CC3)cc2)cc1Nc1nccc(-c2cccnc2)n1 [imatinib]
MAP3K2/MAP3K3 [1]
  inhibition of MAP3K2/MAP3K3-mediated phosphorylation of p47phox: do not inhibit

## COC(=O)c1ccc2c(c1)NC(=O)/C2=C(\Nc1ccc(N(C)C(=O)CN2CCN(C)CC2)cc1)c1ccccc1 [nintedanib, Methyl (3Z)-3-{[(4-{methyl[(4-methylpiperazin-1-yl)acetyl]amino}phenyl)amino](phenyl)methylidene}-2-oxo-2,3-dihydro-1H-indole-6-carboxylate]
MAP3K2/MAP3K3 [1]
  inhibition of MAP3K2/MAP3K3-mediated phosphorylation of p47phox: also inhibits
Mouse ALI models [2]
  reduction of ALI in mouse models: reduce ALI
[3]
  half-life: 10 to 15 h
[4]
  protein binding: 97.8%

## Cc1ccc(Nc2nccc(N(C)c3ccc4c(C)n(C)nc4c3)n2)cc1S(N)(=O)=O [pazopanib, 5-({4-[(2,3-Dimethyl-2H-indazol-6-yl)methylamino]pyrimidin-2-yl}amino)-2-methylbenzenesulfonamide]
MAP3K2/MAP3K3 [1]; substrate MEK5
  inhibition of other substrates of MAP3K2/MAP3K3 such as MEK5: μM levels
MAP3K2/MAP3K3 [1]
  inhibition of MAP3K2/MAP3K3-mediated phosphorylation of p47phox: low nM levels
Mouse ALI models [5]; acid and LPS ALI models
  mortality rate in acid and LPS models: impact mortality rate
Mouse ALI models [5]; acid and LPS ALI models, prophylactic
  prophylactic effect on lung injury in acid and LPS models: prophylactic effect
Mouse ALI models [5]; two mouse ALI/ARDS models, dependent on MAP3K2/3 and ROS production
  ameliorating ALI in the two mouse ALI/ARDS models: effective in ameliorating ALI
neutrophils
  ROS levels: elevates ROS levels
[3]
  bioavailability: 14-21%
  half-life: 30.9 to 31.9 h
[4]
  protein binding: > 99.5%
[6]; 2 doses at 3 mg/kgbw retro-orbital (24, 33 hr after 6000 PFU MHV-1), FIG. 2
  pulmonary permeability: significantly reduce
[6]; 3 doses at 3 mg/kgbw retro-orbital (6, 21, 32 hr after 5000 PFU MHV-1), FIG. 1
  pulmonary permeability: significantly reduce
[6]; one dose 3 mg/kgbw at 24 hr after virus inoculation, FIG. 3
  pulmonary permeability: significantly reduce
[6]; one dose 3 mg/kgbw at 48 hr after virus inoculation, FIG. 4
  pulmonary permeability: significantly reduce
[6]; one dose 3 mg/kgbw at 72 hr after virus inoculation, FIG. 5
  pulmonary permeability: negligible effect
patients; clinical trials
  ILD/pneumonitis reported in patients in the clinical trials: 0.1%
patients; randomized RCC trial
  patients who developed a pneumothorax: [t]wo of 290
patients; randomized STS trial (8/240)
  pneumothorax occurrence in patients treated: 3%
[7]; FIG. 6
  survival rate: does not affect
[7]; FIG. 7
  body weight loss: does not affect
MAP3K2/MAP3K3 [8]
  affinity as p47phox substrate-specific inhibitor for MAP3K2 and 3: low nanomolar
